Literature values in patent US8633167B2, “Method for the protection of trees” (Syngenta Crop Protection LLC, priority 2006, dated 2014).

Test system: coneworm, Dioryctria spp.
Conditions: systemic activity in pine; cited from earlier work

Substance: 4″-deoxy-4″-N-methylamino avermectin B1a/B1b [Emamectin]
- efficacy against coneworm: highly effective
